Experiments:
Assay type in all cases: cell-based
osteosarcoma cell U2OS [1] = assay: Fluorescence microscopy with DAHMI sensor: entry of the tetraboronic acid compound into the cell nucleus; details: osteosarcoma cells, compound acting 24 hours, 1.0 mM DAHMI at 37° C. for 20 minutes, nuclei stained with TOTO-3
Description: (§1) The tetraboronic acid compound prepared by the preparation method is subjected to a biological experimental test for further discussing the application of the tetraboronic acid compound as a potential drug of the BNCT. Since the BNCT is mainly used for a head and neck cancer, the experiments are performed using osteosarcoma cell U2OS as a material.
(§2) By utilizing the characteristics that a fluorescence sensor (DAHMI) is stably bonded to boric acid, and a complex compound thereof can emit blue fluorescence, whether the tetraboronic acid compound enters cells or not is observed. The tetraboronic acid compound is firstly added to the osteosarcoma cells to act for 24 hours. Next, after the tetraboronic acid compound is washed away, the fluorescence sensor DAHMI is added and soaked for 20 minutes, and the cells are cleaned with phosphate buffered saline (PBS). Finally, the cell nuclei are stained with a TOTO™-3 dye or the mitochondria are stained with a Mito tracker Green FM dye, and the cells are observed under a fluorescence microscope (Model: Leica DM2500 & DM2500 LED Optical microscopes), and the results are shown in FIG. 2.
Referring to FIG. 2, FIG. 2 is a cell fluorescence micrograph of a tetraboronic acid compound entering osteosarcoma cells according to one embodiment of the present invention. […]

osteosarcoma cell U2OS [2] = assay: Fluorescence microscopy with DAHMI sensor: accumulation in mitochondria versus BPA; details: osteosarcoma cells, mitochondria stained with Mito tracker Green FM
Description: as §1, §2
Referring to FIG. 3, FIG. 3 is a cell fluorescence micrograph of a tetraboronic acid compound and a clinical drug boronophenylalanine (BPA) according to one embodiment of the present invention.

osteosarcoma cell U2OS [3] = assay: Flow cytometry of DAHMI fluorescence content (boron compound content in cells); details: for Fluorescence content relative to the clinical drug boronophenylalanine: 2.0 mM, ratio to BPA; for Fluorescence content: boron compound 2.0 mM, DAHMI sensor, flow cytometer
Description: as §1
The content of the boron atoms in the osteosarcoma cells is further analyzed, and the fluorescence sensor DAHMI in the cells is excited by a flow cytometer (Model: Thermo Fisher Scientific Attune™ NxT Flow Cytometer) to detect the fluorescence content, thereby analyzing the content of the boron compound bonded to the fluorescence sensor DAHMI. After the osteosarcoma cells are treated with the clinical drug boronophenylalanine (BPA), B3 and B9 respectively, the fluorescence content is detected by the flow cytometer.

In the case of `O=C(NCc1ccc(B(O)O)cc1)C(c1cccc(B(O)O)c1)N(C(=O)c1ccc(B(O)O)cc1)c1ccc(B(O)O)cc1` (centres unmarked) [Example B3], the “Entry into the cell nucleus (blue DAHMI fluorescence brightness, FIG. 2)” value (osteosarcoma cell U2OS [1]) is reported as “enter the cell nucleus more easily than other compounds”, the “Accumulation in the mitochondria (DAHMI fluorescence brightness level compared with BPA, FIG. 3)” value (osteosarcoma cell U2OS [2]) is reported as “more capable of accumulating in the mitochondria than clinical BPA” and the “Fluorescence content relative to the clinical drug boronophenylalanine” value (osteosarcoma cell U2OS [3]) is reported as 1.95 times. For the same molecule, the Fluorescence content (osteosarcoma cell U2OS [3]) was 4831 A.u.

In the case of `O=C(NCc1ccc(B(O)O)cc1F)C(c1cc(B(O)O)ccc1F)N(C(=O)c1ccc(B(O)O)cc1F)c1ccc(B(O)O)cc1` (centres unmarked) [Example B9], the “Entry into the cell nucleus (blue DAHMI fluorescence brightness, FIG. 2)” value (osteosarcoma cell U2OS [1]) is reported as “enter the cell nucleus more easily than other compounds”, the “Accumulation in the mitochondria (DAHMI fluorescence brightness level compared with BPA, FIG. 3)” value (osteosarcoma cell U2OS [2]) is reported as “more capable of accumulating in the mitochondria than clinical BPA” and the “Fluorescence content relative to the clinical drug boronophenylalanine” value (osteosarcoma cell U2OS [3]) is reported as 1.44 times. It also gave a Fluorescence content (osteosarcoma cell U2OS [3]) of 3568 A.u.

From patent publication US10689404B1, “Preparation method of tetraboronic acid compounds, and tetraboronic acid compounds” (Tamkang University, priority 2019, dated 2020)
